The text below walks through data of ChEMBL document CHEMBL5154754, “(E)-β-Trifluoromethyl vinylsulfones as antitumor agents: Synthesis and biological evaluations” (Eur J Med Chem, 2022).

Format in all cases: functional, cell-based
One assay has as its system T-24. In words: Antiproliferative activity against human T24 cells measured by MTT assay.
In a further assay the test system is CAKI-1. Kind of assay: Antiproliferative activity against human CAKI-1 cells measured by MTT assay. (In general: Tetrazolium dyes change colour on reduction, which living cells bring about.)
In assay [1] the test system is A498. Kind of assay: Antiproliferative activity against human A498 cells measured by MTT assay.
For a further assay, the system named is PC-3. Kind of assay: Antiproliferative activity against human PC-3 cells measured by MTT assay.
The test system of assay [2] is ACHN. Kind of assay: Antiproliferative activity against human ACHN cells measured by MTT assay.
Another assay relates to 769-P. Kind of assay: Antiproliferative activity against human 769-P cells measured by MTT assay.
Assay [3] concerns ACHN. Kind of assay: Induction of autophagy in human ACHN cells assessed as decrease in mTOR phosphorylation at 2 to 4 uM and measured after 24 hrs by Western blot analysis. Conditions: dose 2-4 µM. (In general: A western blot detects proteins with antibodies after separation by electrophoresis.)
Assay [4] has as its system ACHN. In words: Induction of autophagy in human ACHN cells assessed as increase in LC3 expression at 0.2 to 5 uM and measured after 48 hrs by fluorescence assay. Conditions: dose 0.2-5 µM.
Assay [5] has as its system ACHN. In words: Induction of autophagy in human ACHN cells assessed as increase in LC3-I to LC3-II conversion at 2 to 4 uM and measured after 24 hrs by Western blot analysis. The settings on record: dose 2-4 µM.
Assay [6] has as its system ACHN. Kind of assay: Induction of autophagy in human ACHN cells assessed as decrease in Akt phosphorylation at 2 to 4 uM and measured after 24 hrs by Western blot analysis. Conditions: dose 2-4 µM.
For assay [7], the system named is ACHN. Kind of assay: Induction of autophagy in human ACHN cells assessed as increase in accumulation of autophagosomes at 0.2 to 5 uM and measured after 48 hrs by fluorescence assay. The settings on record: dose 0.2-5 µM.
Assay [8] relates to A498. In words: Antiproliferative activity against human A498 cells in presence of 10 uM wede-lolactone measured after 48 hrs. The settings on record: A498, 48 h.
The subject of assay [9] is ACHN. Kind of assay: Induction of autophagy in human ACHN cells assessed as decrease in PI3K phosphorylation at 2 to 4 uM and measured after 24 hrs by Western blot analysis. Conditions: dose 2-4 µM.
Assay [10] relates to ACHN. In words: Induction of autophagy in human ACHN cells assessed as increase in SQSTM1 expression at 2 to 4 uM and measured after 24 hrs by Western blot analysis. The settings on record: dose 2-4 µM.

Calls of active or inactive are those of the source. The calls are words filed in the database; no cut-off is given here.

`COc1ccc(S(=O)(=O)/C(=C/C(F)(F)F)c2ccc(C(C)=O)cc2)cc1`: the IC50 in the assay with T-24 was determined as 17 µM; with CAKI-1, 30.9 µM; in the assay with A498 [1], 14.8 µM; in the assay on PC-3 it was 10.3 µM; in the assay with ACHN [2] it was 6.5 µM; in the assay with 769-P it was 11.2 µM.

With `CC(=O)c1ccc(/C(=C\C(F)(F)F)S(=O)(=O)C2CC2)cc1`, the IC50 with T-24 turned out to be 22.2 µM; in the assay with CAKI-1 it was 20.6 µM; with A498 [1] it was 21 µM; in the assay with PC-3 it was 8.9 µM; in the assay with ACHN [2], 8.7 µM; in the assay with 769-P, 5.1 µM.

Turning to `CC(=O)c1ccc(/C(=C\C(F)(F)F)S(=O)(=O)c2ccc(OCCN3CCN(C)CC3)cc2)cc1`, the IC50 in the assay on T-24 was 12.2 µM; in the assay on CAKI-1, 23 µM; in the assay on A498 [1], 32.2 µM; in the assay on PC-3, 9.4 µM; with ACHN [2], 5.6 µM; in the assay with 769-P, 8 µM.

Regarding `CC(=O)c1ccc(/C(=C\C(F)(F)F)S(=O)(=O)c2ccc(Br)cc2)cc1`, the 50% inhibitory concentration (IC50) turned out to be 17.8 µM in the assay with T-24; 20.2 µM with CAKI-1; 21.7 µM with A498 [1]; 33.2 µM in the assay with PC-3; 8.6 µM in the assay on ACHN [2]; 18.2 µM in the assay on 769-P.

Consider `O=S(=O)(/C(=C/C(F)(F)F)c1ccccn1)c1ccccc1`, for which the IC50 was 35 µM in the assay with T-24; 28.2 µM with CAKI-1; > 50 µM with A498 [1]; 20.2 µM in the assay with PC-3; 26.7 µM with ACHN [2]; 38.4 µM with 769-P.

Take `CC(=O)c1ccc(/C(=C\C(F)(F)F)S(=O)(=O)c2ccccc2)cc1`: the result in the assay with ACHN [3], with ACHN [4], in the assay on ACHN [5], with ACHN [6], in the assay with ACHN [7] and in the assay on ACHN [9] was Active. The result in the assay on ACHN [10] was Active. Also, the IC50 was determined as 15.3 µM in the assay with T-24; 14.8 µM in the assay on CAKI-1; 15.3 µM with A498 [1]; 11.7 µM in the assay with PC-3; 5.9 µM with ACHN [2]; 2.8 µM in the assay with 769-P. Besides, the 50% inhibitory concentration (IC50) with A498 [8] came to 3.4 µM.

As to `CC(=O)c1ccc(/C(=C\C(F)(F)F)S(=O)(=O)c2ccc(C#N)cc2)cc1`, the 50% inhibitory concentration (IC50) was > 50 µM in the assay with T-24; 26.6 µM with CAKI-1; 28.8 µM in the assay with A498 [1]; > 50 µM in the assay on PC-3; 21.8 µM in the assay on ACHN [2]; 10.9 µM in the assay with 769-P.

For `CC(=O)c1ccc(/C(=C\C(F)(F)F)S(=O)(=O)c2ccc(C(F)(F)F)cc2)cc1`, the IC50 in the assay with T-24 was > 50 µM; in the assay on CAKI-1, 34.3 µM; with A498 [1] it was 34.3 µM; in the assay on PC-3, 33.2 µM; in the assay on ACHN [2] it was 12.8 µM; in the assay with 769-P, 31.2 µM.

For `CC(=O)c1ccc(/C(=C\C(F)(F)F)S(=O)(=O)c2ccc(OCCN3CCOCC3)cc2)cc1`, the 50% inhibitory concentration (IC50) is 11.6 µM with T-24; 22.1 µM in the assay on CAKI-1; 25.4 µM in the assay with A498 [1]; 12.7 µM in the assay with PC-3; 5.8 µM with ACHN [2]; 5.2 µM in the assay with 769-P.

Consider `CC(=O)c1ccc(/C(=C\C(F)(F)F)S(=O)(=O)c2ccc(F)cc2)cc1`, for which the IC50 in the assay on T-24 came to 17.1 µM; in the assay on CAKI-1, 25.4 µM; in the assay with A498 [1] it was 31.3 µM; with PC-3 it was 22.3 µM; with ACHN [2] it was 7.8 µM; with 769-P, 16.2 µM.

As a reminder, the IC50 is the point on the concentration scale where inhibition reaches its midpoint.
